Reference: US20150005347A1, “NITROGEN-CONTAINING HETEROCYCLIC DERIVATIVE HAVING 2-IMINO GROUP AND PEST CONTROL AGENT INCLUDING THE SAME” (MEIJI SEIKA PHARMA CO., LTD., priority 2012, published 2015)
Where two headings read alike, the source gives them in different places.

How the values were obtained:
Assay type in all cases: in vivo
Sogatella furcifera = test: Pest control test of Sogatella furcifera, soil irrigation treatment
Procedure: Test Example 11 Pest Control Test of Sogatella furcifera
A rice seedling in pot culture was subjected to soil irrigation treatment with a drug solution of the compound of the present invention at a predetermined concentration, which had been prepared so as to be a 10% acetone water. Three days after the treatment, ten second instar larvae of Sogatella furcifera were each released thereto. Thereafter, the larvae were left to stand in a thermostatic chamber (16 hours of light period-8 hours of dark period) at 25° C. […] The test was performed in duplicate.
(§1) Mortality of larvae(%)={number of dead larvae/(number of survived larvae+number of dead larvae)}×100

[1] = tested on: susceptible populations of Laodelphax striatella; test: Soil irrigation test, susceptible populations of Laodelphax striatella; conditions: Rate 0.005 mg/pot
Procedure: (§2) A rice seedling in pot culture was subjected to soil irrigation treatment with a drug solution of the compound of the present invention at a predetermined concentration, which had been prepared so as to be a 10% acetone water. […] Thereafter, the larvae were left to stand in a thermostatic chamber (16 hours of light period-8 hours of dark period) at 25° C. […] The test was performed in duplicate.
as §1
Further, for comparison, the test against a populations of Laodelphax striatella which is highly susceptible to fipronil was performed by the same method as described above, and the results thereof are shown in Table 45.
(§3) In addition, for the origin of test pests, bugs collected within the Kumamoto prefecture in 2006 as the drug resistant Laodelphax striatella, and bugs successively reared indoors for a long time as the susceptible populations of Laodelphax striatella were used.

[2] = tested on: Laodelphax striatella exhibiting drug resistance to fipronil; test: Soil irrigation test, Laodelphax striatella exhibiting drug resistance to fipronil
Procedure: Test Example 20 Pest Control Test of Laodelphax striatella
as §2, §1, §3

[3] = tested on: Frankliniella occidentalis; test: Pest control test of Frankliniella occidentalis, kidney bean leaf disk foliar spray; conditions: Frankliniella occidentalis, foliar
Summary of the method: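 Kidney bean leaf disks (2.8 cm) sprayed with compound in 50% acetone water with 0.05% Tween20, air-dried, then infested with first instar larvae. Held at 25° C, 16 h light/8 h dark; larval mortality (%) calculated from dead versus total larvae, in duplicate.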

[4] = tested on: Sogatella furcifera exhibiting drug resistance to fipronil; test: Soil irrigation test, Sogatella furcifera exhibiting drug resistance to fipronil
Procedure: Test Example 19 Pest Control Test of Sogatella furcifera
as §2, §1
In addition, for the origin of test pests, bugs collected within the city of Odawara in 2010 as the drug resistant Sogatella furcifera, and bugs collected within the city of Chigasaki in 1970 and then successively reared indoors for a long time as the susceptible populations of Sogatella furcifera were used.

[5] = tested on: Nilaparvata lugens exhibiting drug resistance to imidacloprid; conditions: soil irrigation
Procedure: Test Example 18 Pest Control Test of Drug-Resistant Nilaparvata lugens
as §2, §1
Further, for the origin of test pests, bugs collected outdoors within the Kumamoto prefecture in 2007 as the drug resistant Nilaparvata lugens, and bugs collected within the Kagoshima prefecture and then successively reared indoors for a long time as the imidacloprid susceptible populations of Nilaparvata lugens were used.

[6] = tested on: Haemaphysalis longicornis; test: Pest control test of Haemaphysalis longicornis on the body surface of a dog; conditions: 72 h, read-out: mortality of mites
Procedure: Test Example 25 Pest Control Test of Haemaphysalis longicornis
Three petri dishes with a diameter of 9 cm and a height of 1 cm were adhered to the back of a dog. Compound 1-20 of the present invention was dissolved in ethanol so as to be 5.35 mg/mL, and the mixture was added dropwise to the body surface of the dog in the petri dish. The petri dish was sufficiently dried, and then thirty young mites of Haemaphysalis longicornis were released thereto. Each dog was housed in a cage and reared under conditions of 10 hours of light period and 14 hours of dark period at 23° C. Three days after the release, the petri dishes were detached therefrom to measure the numbers of living and dead mites and blood-sucking individuals of young mites, and the mortality of mites was calculated according to the following equation.
Mortality of mites(%)={number of dead mites/(number of survived mites+number of dead mites)}×100

Nilaparvata lugens = test: Pest control test of Nilaparvata lugens, soil irrigation treatment; conditions: soil irrigation treatment
Procedure: Test Example 12 Pest Control Test of Nilaparvata lugens
A rice seedling in pot culture was subjected to soil irrigation treatment with a drug solution of the compound of the present invention at a predetermined concentration, which had been prepared so as to be a 10% acetone water. Three days after the treatment, ten second instar larvae of Nilaparvata lugens were each released thereto. Thereafter, the larvae were left to stand in a thermostatic chamber (16 hours of light period-8 hours of dark period) at 25° C. […] The test was performed in duplicate.
as §1

[7] = tested on: Laodelphax striatella exhibiting drug resistance to fipronil; test: Foliar spray test, Laodelphax striatella exhibiting drug resistance to fipronil; conditions: Laodelphax striatellus, 144 h, read-out: mortality of larvae
Procedure: Test Example 15 Pest Control Test of Laodelphax striatella
A drug solution of the compound of the present invention at a predetermined concentration, which had been prepared so as to be a 50% acetone water (0.05% Tween20 available), was foliar sprayed to a rice seedling in pot culture. […] Thereafter, the larvae were left to stand in a thermostatic chamber (16 hours of light period-8 hours of dark period) at 25° C. […] Test in duplicate.
as §1
Further, for the origin of test pests, insects of Laodelphax striatella collected outdoors within the Kumamoto prefecture in 2006 were used.

[8] = tested on: Trigonotylus caelestialium; test: Pest control test of Trigonotylus caelestialium, wheat seedling dipping; conditions: Trigonotylus caelestialium
Summary of the method: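 Wheat seedlings (4 days post-sowing) dipped 30 s in compound in 50% acetone water with 0.05% Tween20, air-dried, then exposed to two second-instar larvae in a lidded glass tube at 25° C, water supplied from below. Larval mortality (%) = dead/(dead+survived)×100.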

[9] = fipronil-resistant vs susceptible
[10] = 72 h, read-out: mortality of larvae
[11] = read-out: % Mortality, Test Example7 Frankliniella occidentalis
[12] = read-out: % Mortality, Test Example8 Trigonotylus caelestialium

## FC(F)(F)C(=S)/N=c1\ccccn1Cc1ccc(Cl)nc1 [Compound 1-20, N-[1-((6-chloropyridin-3-yl)methyl)pyridin-2(1H)-ylidene]-2,2,2-trifluoroethanethioamide]
Sogatella furcifera; 0.005 mg/pot
  % Mortality, Test Example 11 Sogatella furcifera: 53%
Sogatella furcifera; 0.01 mg/pot
  % Mortality, Test Example 11 Sogatella furcifera: 88%
[1]
  Insecticidal effects against Laodelphax striatella (mortality of larvae %), Susceptible populations six days after the treatment: 85%
[2]; Rate 0.005 mg/pot, drug resistant populations
  Insecticidal effects against Laodelphax striatella (mortality of larvae %), Drug resistant populations six days after the treatment: 79%
[2]; fipronil-resistant
  insecticidal effects against drug resistant Laodelphax striatella: high insecticidal effects
[2]; [9]
  mortality of larvae against drug resistant populations compared with susceptible populations of Laodelphax striatella: equivalent mortality of larvae
[3]; [10]
  mortality at 100 ppm: ≥ 80%
  mortality at 500 ppm: ≥ 80%
[3]; [11]
  mortality at 20 ppm: 50%
  mortality at 100 ppm: 80%
[4]; Rate 0.005 mg/pot
  Insecticidal effects against Sogatella furcifera (mortality of larvae %), Drug resistant populations six days after the treatment: 53%
[4]; Rate 0.01 mg/pot
  Insecticidal effects against Sogatella furcifera (mortality of larvae %), Drug resistant populations six days after the treatment: 88%
[4]; fipronil-resistant
  insecticidal effects against drug resistant Sogatella furcifera: high insecticidal effects
[4]; [9]
  mortality of larvae against drug resistant populations compared with susceptible populations of Sogatella furcifera: equivalent mortality of larvae
[5]; imidacloprid-resistant
  insecticidal effects against drug resistant Nilaparvata lugens: high insecticidal effects
[5]; imidacloprid-resistant vs susceptible
  mortality of larvae against drug resistant populations compared with susceptible populations of Nilaparvata lugens: equivalent mortality of larvae
[6]
  mortality at 5350 µg/mL: 100%
Nilaparvata lugens; 0.005 mg/pot
  % Mortality, Test Example 12 Nilaparvata lugens: 80%
Nilaparvata lugens; 0.01 mg/pot
  % Mortality, Test Example 12 Nilaparvata lugens: 85%
Nilaparvata lugens; 0.05 mg/pot
  % Mortality, Test Example 12 Nilaparvata lugens: 100%
[7]
  mortality at 1.25 ppm: ≥ 80%
[8]; [10]
  mortality at 10 ppm: ≥ 80%
  mortality at 50 ppm: ≥ 80%
[8]; [12]
  mortality at 2 ppm: 50%
  mortality at 10 ppm: 100%
  mortality at 50 ppm: 100%
